Values quoted from earlier work in patent US7109337B2, “Pyrimidine derivatives for the treatment of abnormal cell growth” (Pfizer Inc, priority 2002, dated 2006).

Assays:
[1] = test system: transplanted human mammary carcinoma that expresses epidermal growth factor receptor tyrosine kinase (EGFR); details: athymic nude mice
[2] = test system: another carcinoma that does not express the EGF receptor

O=CN/C=C/c1cc(O)ccc1O [erbstatin]
growth of transplanted human mammary carcinoma [1]: selectively attenuates the growth
growth of another carcinoma [2]: without effect on the growth
